Where two headings read alike, the source gives them in different places.
Key:
[1] = test system: LPS-induced IFNγ secretion; assay: LPS-induction of IFNγ cell-based assay in human PBMCs (ELISA)
Procedure: To assess the activity of the acetate-producing strain SYN2001 in vitro, we employed the LPS-induction of IFNγ cell-based assay. Frozen normal human PBMCs from two independent donors (Lot #'s A4956 and A4924) were plated in triplicate at 1×10^6 cells/mL in 96-well plates in complete media. The cells were then incubated for 15 minutes with media containing either a dilution series of synthetic acetate (40 mM-0.08 Mm), SYN2001 supernatant (30 mM-0.03 mM acetate concentrations based on LC-MS determination) or untreated (negative control). After the 15-minute incubation period, complete media containing LPS was added to the cells to a final concentration of 100 ng/mL and the cells were further incubated overnight under these conditions. The following day supernatants were harvested from each of the different conditions and the IFNγ levels assessed by ELISA. […] We noted that the absolute levels of IFNγ production in the SYN2001 experiments was higher than in the purified acetate experiments, likely due to residual additional LPS in the supernatants from the bacterially-derived acetate. Nonetheless, the IC50s observed for the two acetate sources were very similar.

neutrophils = settings: cited from earlier work
[2] = test system: PnsrR-GFP reporter construct; assay: Nitric oxide inducible PnsrR-GFP reporter construct, fluorescence in plate reader; type: cell-based, E. coli Nissle; settings: DETA-NO, two-fold decreased inducer, 96-well, relative florescence units
PXR = target: T1, PXR (Mus musculus, UniProt O54915); settings: in vivo; cited from earlier work
T1 sequence (O54915 1-431): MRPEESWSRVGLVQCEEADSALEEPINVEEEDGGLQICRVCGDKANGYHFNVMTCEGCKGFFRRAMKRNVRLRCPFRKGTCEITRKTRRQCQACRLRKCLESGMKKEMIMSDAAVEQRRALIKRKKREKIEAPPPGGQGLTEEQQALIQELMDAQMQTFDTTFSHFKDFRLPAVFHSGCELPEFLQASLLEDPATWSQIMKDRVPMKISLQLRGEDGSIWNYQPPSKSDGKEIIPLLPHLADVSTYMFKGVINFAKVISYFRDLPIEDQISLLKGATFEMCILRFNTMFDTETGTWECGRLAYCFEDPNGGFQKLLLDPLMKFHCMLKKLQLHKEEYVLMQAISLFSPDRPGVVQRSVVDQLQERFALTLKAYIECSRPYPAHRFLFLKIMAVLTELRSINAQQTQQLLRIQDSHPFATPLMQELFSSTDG

[3] = test system: gut motility and inflammation; settings: rats, early phase of acute colitis; cited from earlier work
[4] = test system: HT-29 colon adenocarcinoma cells; assay: Cell viability assay in HT-29 cells (trypan blue, Cellometer K2); settings: 4 days, data not shown
[5] = test system: Ptet-GFP reporter construct; assay: ATC-inducible Ptet-GFP reporter construct, fluorescence in plate reader; settings: two-fold decreased inducer, 96-well, relative florescence units
Excerpt: When induced by their cognate inducers, these constructs express GFP, which is detected by monitoring fluorescence in a plate reader at an excitation/emission of 395/509 nm, respectively.
These constructs, when induced by their cognate inducer, lead to high level expression of GFP, which is detected by monitoring fluorescence in a plate reader at an excitation/emission of 395/509 nm, respectively. […] Promoter activity is expressed as relative florescence units.

IL-22 = target: T2, IL-22 (Homo sapiens, UniProt Q9GZX6); assay: Anti-IL-22 neutralizing antibody inhibition of STAT3 activation in Colo205 cells; type: cell-based; settings: IC50 of anti-IL-22 neutralizing antibody against STAT3 activation by the listed IL-22 source (3 ng/mL)
T2 construct: IL-22 fused to a cleavable PhoA-secretion tag to mediate Sec-dependent secretion into the periplasm; PhoA secretion tag (21 amino acids) (N, cleaved yes); made in house; filtered culture supernatant
T2 sequence (Q9GZX6 34-179): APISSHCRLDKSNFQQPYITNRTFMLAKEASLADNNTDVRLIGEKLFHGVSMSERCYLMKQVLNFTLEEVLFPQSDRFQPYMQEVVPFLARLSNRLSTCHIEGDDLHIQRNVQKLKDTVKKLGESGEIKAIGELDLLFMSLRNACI
Procedure: To verify that the STAT3 activation elicited by supernatants from SYN3001 was indeed due to IL-22 signaling, Colo205 cells were stimulated with IL-22 supernatants derived from SYN3001 at 3 ng/mL in the presence of increasing concentrations of an anti-IL-22 neutralizing antibody. rLI-22 in the absence of the neutralizing antibody served as a positive control.

STAT3 = STAT3 activation in Colo205 cells by IL-22 containing supernatants; type: cell-based; settings: average of 5 experiments
Procedure: To assess the biological activity of IL-22 produced by SYN3001 (IL-22 secreting strain), titrations of SYN3001 and SYN3000 (DOM mutant, non IL-22 secreting negative control strain) supernatants (starting at 150 ng/mL and titrated in 1:3 dilutions) were added to Colo205 cells and the activation of STAT3 was assessed. […] In contrast, SYN3000 had no effect on STAT3 activity.

CC(=O)O [Acetate (synthetic)]
EC50 ([1]; decrease of LPS-induced IFNγ, human PBMCs donor 1, LPS 100 ng/mL, acetate concentration, read-out: EC50-donor 1): 3120 µM
EC50 ([1]; decrease of LPS-induced IFNγ, human PBMCs donor 2, LPS 100 ng/mL, acetate concentration, read-out: EC50-donor 2): 2180 µM

CC(=O)O [Acetate]
EC50 ([1]; human PBMC, donor 1, 3 experiments in triplicate, LPS 100 ng/mL, read-out: EC50 on LPS-induced IFNγ secretion, Donor 1): 3120 µM
EC50 ([1]; human PBMC, donor 2, 3 experiments in triplicate, LPS 100 ng/mL, read-out: EC50 on LPS-induced IFNγ secretion, Donor 2): 2180 µM
LPS-induced secretion of IFNγ ([1]; primary human PBMC, two donors, FIG. 26G/26H): dose-dependent decrease

Nc1ccccc1C(=O)CC(N)C(=O)O (stereo not shown) [Kynurenine]
apoptosis in neutrophils (neutrophils): induce apoptosis

NCCN(CCN)/[N+]([O-])=N/O [NO, diethylenetriamine-nitric oxide adduct]
induction of GFP expression [2]: able to induce the expression of GFP

O=C(O)CCc1c[nH]c2ccccc12 [indole 3-propionic acid (IPA), indole 3-propionic acid]
PXR ligand (PXR): ligand for PXR

O=C(O)c1cc(=O)c2ccccc2[nH]1 [kynurenic acid]
gut motility and inflammation [3]: decreased gut motility and inflammation

CCCC(=O)O [synthetic butyrate, butyrate]
effect on cell viability [4]: did not have any appreciable effect

anhydrous tetracycline [ATC]
induction of GFP expression [5]: able to induce the expression of GFP

rIL-22
IC50 (IL-22): 3.70 ng/mL
EC50 (STAT3): 1.56 ng/mL
